Data from patent publication US8093050B2, “mTOR inhibtors and mTOR signaling pathway inhibitors induce differentiation of human embryonic stem cells into the osteoblastic lineage” (Korea Research Institute of Bioscience and Biotechnology, priority 2007, dated 2012).
“Also recorded” adds a separate entry of the source.

Tests used:
[1] = tested on: human embryonic stem cells; test: RT-PCR of osteoblast-specific genes, adhesion culture (FIG. 5); assay type: cell-based; settings: for expression of osteoblast-specific genes: 10 μM of LY29400, 1 μM of an AKT inhibitor, or rapamycin; for expression level of osteoblastic markers: human embryonic stem cells, LY294002, AKT inhibitor, or 20 nM rapamycin for 5 days
Experimental: For osteogenic differentiation by adhesion culturing, the human embryonic stem cells obtained in Example 1, after passage, were cultured in the culture medium of Example 1 for 2 days, and then in a culture medium, free of recombinant human FGF basic, […], 0.01˜50 μM LY294002, 0.01˜20 μM AKT inhibitor, or conventional osteogenic supplements (10 mM β-glycerophosphate, 0.1 mM Dexamethasone, 0.1 mM L-ascorbic acid) for […], with daily replacement with a fresh embryonic stem cell culture medium (FIG. 2A).
(§1) The differentiation of human embryonic stem cells into osteoblasts in Example 3 was examined by detecting the expression of osteoblast-specific genes through RT-PCR and quantitative real-time PCR. For this, after treatment or non-treatment with rapamycin, LY294002, an AKT inhibitor or osteogenic supplements (10 mM β-glycerophosphate, 0.1 mM Dexamethasone, and 0.1 mM L-ascorbic acid), cells were collected according to differentiation stages and subjected to total RNA isolation using a TRIzol reagent (Invitrogen, USA). The RNA was used as a template to synthesize cDNA with a oligo(dT) primer in the presence of a Superscript II reverse transcriptase, followed by PCR with various primers listed in Table 1, below.
First, a description is given of the adhesion culture method. […] Afterwards, the human embryonic stem cells are induced to differentiate into osteoblasts by being cultured for five days in a medium that is the same except that it is free of recombinant human FGF basic and is supplemented with LY294002, an AKT inhibitor, rapamycin, and/or conventional osteogenic supplements (10 mM 3-glycerophosphate, 0.1 mM Dexamethasone, and 0.1 mM L-ascorbic acid) (Stage II).

[2] = tested on: human embryonic stem cells; test: Cytotoxicity in differentiation culture; assay type: cell-based; settings: for cytotoxicity: 10 μM of LY29400, 1 μM of an AKT inhibitor, or 220 nM of rapamycin
[3] = tested on: human embryonic stem cell-derived embryoid bodies; test: RT-PCR of osteoblast-specific genes, embryoid body formation method (FIG. 6); assay type: cell-based; settings: for expression level of osteoblastic markers / expression level of osteoblast-specific genes compared to untreated control: embryoid bodies; for expression level of osteoblastic markers: 20 nM rapamycin for three weeks; for expression level of osteoblast-specific genes compared to untreated control: LY294002 (0-50 μM), AKT inhibitor (0-20 μM), or rapamycin (0-200 nM) for 1~3 weeks; for expression levels of osteoblast-specific genes: embryoid body formation method
Experimental: After being collected as a suspension, the cell clumps were transferred into bacterial cell culture dishes and incubated for 5 days in a suspension culture manner. Afterwards, the embryoid bodies thus obtained were transferred to Matrigel (BD biosciences, USA)-coated culture dishes, free of human recombinant FGF basic, containing 0.1˜200 nM rapamycin, […], or osteogenic supplements (10 mM β-glycerophosphate, 0.1 mM Dexamethasone, and 0.1 mM L-ascorbic acid) for three weeks in an adhesion culture manner to achieve osteogenic differentiation (FIG. 3A).
as §1
(§2) Osteogenic differentiation using the embryoid body formation method is schematically illustrated in FIG. 3A. Initially, human embryonic stem cells are cultured for one day in the same manner as in the adhesion culture method, after which the colonies thus grown are sliced into cell clumps using a tool made from a glass pipette.

[4] = tested on: PI4K, an EGR receptor, a PDGF receptor, an insulin receptor, an MAP kinase, an S6 kinase; settings: cited from earlier work
PI3K = settings: cited from earlier work
[5] = tested on: human embryonic stem cell-derived embryoid bodies; test: Quantitative real-time PCR of osteoblast-specific genes (FIGS. 7, 8, 11); assay type: cell-based
Experimental: After being collected as a suspension, the cell clumps were transferred into bacterial cell culture dishes and incubated for 5 days in a suspension culture manner. Afterwards, the embryoid bodies thus obtained were transferred to Matrigel (BD biosciences, USA)-coated culture dishes, free of human recombinant FGF basic, containing 0.1˜200 nM rapamycin, 0.01˜50 μM LY294002, 0.01˜20 μM AKT inhibitor, or osteogenic supplements (10 mM β-glycerophosphate, 0.1 mM Dexamethasone, and 0.1 mM L-ascorbic acid) for three weeks in an adhesion culture manner to achieve osteogenic differentiation (FIG. 3A).
as §1, §2

[6] = tested on: human embryonic stem cell-derived embryoid bodies; test: Immunofluorescent staining for BSP and osteocalcin; assay type: cell-based
Experimental: The osteogenic differentiation of the cells obtained using the three differentiation inducing techniques described in Example was identified by immunofluorescent staining. First, the cells were placed on a 1 cm^2 cover glass and the medium was aspirated. Following washing with PBS, the cells were incubated with a fixing solution (citrate-acetone-formaldehyde) for about 30 sec at room temperature and washed with distilled water for 45 sec. Next, treatment with 3% bovine serum albumin/phosphate buffered saline (BSA/PBS) for 30 min was followed by incubation with a primary antibody for 12 hrs. Then, the cells were washed three times for 15 min in 0.1% Triton X-100/PBS before labeling by incubation with an Alexa488-conjugated secondary antibody (Molecular probes, USA) for 30 min at room temperature. The cells were washed again three times in 0.1% Triton X-100/PBS for 15 min each time for observation under a fluorescent microscope (Olympus, Japan). In order to identify osteogenic differentiation, anti-bone sialoprotein (anti-BSP, Chemicon; 1:100), and anti-osteocalcin (R&D Systems; 1:500) were used for immunofluorescence.

[7] = tested on: human embryonic stem cell-derived embryoid bodies; test: Analysis for mineralization by Alizarin-Red S staining; assay type: cell-based
Experimental: The cells obtained using the three differentiation inducing techniques described in Example 3 were analyzed for mineralization using an Alizarin-Red S staining method. After aspirating the culture medium, the cells on the culture dish were washed with PBS and fixed at 4° C. for 1 hr with 70% ethanol. Thereafter, the cells were stained with a 40 mM alizarin red (AR) solution (pH 4.2) for 10 min, washed with distilled water, and observed for mineral nodule formation under an optical microscope before they were completely dried. […] A culture period of three weeks was required to maximize the number of Alizarin Red-positive cells upon osteogenic differentiation with rapamycin alone.

[8] = osteoblasts differentiated from embryoid bodies, FIG. 6
[9] = embryoid bodies, one week of differentiation, FIG. 7
[10] = two weeks of differentiation culture, FIG. 7

With `CCCCCCCCCCCCCCCCCCOC[C@H](COC(=O)OC1C(O)C(O)C(O)C(CO)C1O)OC` (stereo partly drawn) [AKT inhibitor] the “expression of osteoblast-specific genes” value [1] was “efficiently expressed”, the “expression level of osteoblastic markers” value [1] was “increase in expression level” and the cytotoxicity [2] was “without the occurrence of cytotoxicity”. The “expression level of osteoblastic markers” value [3] was “increase in expression level”, the “expression level of osteoblast-specific genes compared to untreated control” value (from here on “expression level … compared to untreated control”) [3] was “increase in the expression level” and the “expression levels of osteoblast-specific genes” value ([3]; FIG. 6) was “increase the expression levels”. For the same compound, the “expression of osterix and osteoprotegerin” value [3, 8] was “expressed at high levels”.

In the case of `O=c1cc(N2CCOCC2)oc2c(-c3ccccc3)cccc12` [LY294002], the “expression of osteoblast-specific genes” value [1] is reported as “efficiently expressed”, the “expression level of osteoblastic markers” value [1] is reported as “increase in expression level” and the cytotoxicity [2] is reported as “without the occurrence of cytotoxicity”. For the same compound, the “inhibition of PI4K, an EGR receptor, a PDGF receptor, an insulin receptor, an MAP kinase, an S6 kinase” value [4] was “does not inhibit”, the “inhibition of PI3K” value (PI3K) was “inhibits PI3K” and the “expression level of osteoblastic markers” value [3] was “increase in expression level”. The “expression level … compared to untreated control” value [3] was “increase in the expression level”, the “expression levels of osteoblast-specific genes” value ([3]; FIG. 6) was “increase the expression levels” and the “expression of osterix and osteoprotegerin” value [3, 8] was “expressed at high levels”.

For `CO[C@H]1C[C@@H]2CC[C@@H](C)[C@@](O)(O2)C(=O)C(=O)N2CCCC[C@H]2C(=O)O[C@H]([C@H](C)C[C@@H]2CC[C@@H](O)[C@H](OC)C2)CC(=O)[C@H](C)/C=C(\C)[C@@H](O)[C@@H](OC)C(=O)[C@H](C)C[C@H](C)/C=C/C=C/C=C/1C` [rapamycin], the “expression of osteoblast-specific genes, dose comparison” value ([1]; 20 nM versus 10 nM of rapamycin) was “greater levels in the presence of 20 nM than 10 nM”, the “expression levels of Osteocalcin and Osteonectin, dose comparison” value ([1]; 20 nM versus 10 nM rapamycin, FIG. 5) was “higher at a dose of 20 nM than 10 nM” and the “expression of osteoblast-specific genes” value [1] was “efficiently expressed”. The “expression level of osteoblastic markers” value [1] was “increase in expression level”, the “expression of osterix, BMP2, and osteonectin genes” value ([1]; two cell lines, adhesion culture, FIG. 5) was “expressed in both cell lines, but in different patterns” and the “expression of osteoblastic markers Cbfa-1, osteocalcin, and osteoprotegerin” value ([1]; two independently established cell lines, adhesion culture, compared to an undifferentiated control, FIG. 5) was “expressed; also recorded: distinctively higher levels”. The cytotoxic effects ([2]; 20 nM of rapamycin added to a culture medium) was “no cytotoxic effects”, the cytotoxicity [2] was “without the occurrence of cytotoxicity” and the “osteogenic differentiation activity relative to conventional osteogenic supplements (cell morphology, expression level of osteoblastic markers)” value ([5]; FIGS. 2, 7 and 8) was “as good as or better than”. For the same compound, the “expression level of osterix, BMP2, BMP4, α1 type I collagen, osteocalcin, osteoprotegerin, osteonectin, and osteopontin” value ([5]; after three weeks of differentiation culture, FIG. 8) was “continued to increase in expression level”, the “expression level of Cbfa1” value ([5]; both human embryonic stem cell lines, after three weeks of differentiation culture) was “decreased in the expression level” and the “expression levels of osterix, BMP4, α1 type I collagen, osteoprotegerin, and osteopontin” value ([5]; both human embryonic stem cell lines, three weeks of differentiation culture) was “similarly increased”. The “expression of BMP2 increased” value [5, 9] was 1.38 fold, the “expression of BSP increased” value [5, 9] was 6.54 fold and the “expression of Cbfa1 increased” value [5, 9] was 3.24 fold. For the same compound, the “expression of osteocalcin increased” value [5, 9] was 1.84 fold, the “expression of osteopontin increased” value [5, 9] was 2.89 fold and the “expression level of osteoblastic markers” value ([5]; embryoid bodies, one week of incubation with rapamycin, FIG. 7) was “increase in expression level”. The “expression level of BMP2 increased” value [5, 10] was 1.34 fold, the “expression level of BMP4 increased” value [5, 10] was 1.18 fold and the “expression level of BSP increased” value [5, 10] was 1.63 fold. For the same compound, the “expression level of Cbfa-1 increased” value [5, 10] was 2.11 fold, the “expression level of osteocalcin increased” value [5, 10] was 1.61 fold and the “expression level of osteonectin increased” value [5, 10] was 1.94 fold. For the same compound, the “expression level of osteopontin increased” value [5, 10] was 5.81 fold, the “expression level of osteoprotegerin increased” value [5, 10] was 2.18 fold and the “expression level of osterix increased” value [5, 10] was 1.59 fold. The “expression level of α1 type I collagen increased” value [5, 10] was 1.35 fold, the “ability to induce osteogenic differentiation relative to conventional osteogenic supplements” value ([6]; FIG. 9) was “as good as or better than” and the “number of cells differentiated into osteoblasts (BSP or osteocalcin antibody) relative to conventional osteogenic supplements” value ([6]; FIG. 9) was “same or greater number”. For the same compound, the “immunofluorescent staining with antibodies to BSP and osteocalcin” value ([6]; embryoid bodies, three weeks, 20 nM rapamycin) was “positively stained”, the “Alizarin-Red staining of differentiated cells” value ([7]; cells induced to differentiate, FIG. 10) was “positively stained” and the “incubation needed to obtain a mature osteoblast phenotype” value ([7]; embryoid bodies incubated with rapamycin) was “additional three weeks”. The “differentiation into mature osteoblasts” value ([7]; embryoid bodies, 20 nM rapamycin for three weeks) was “most efficient differentiation”, the “Alizarin Red S staining” value ([7]; embryoid bodies, three weeks, 20 nM rapamycin, FIG. 10) was “positively stained” and the “culture period required to maximize the number of Alizarin Red-positive cells” value ([7]; osteogenic differentiation with rapamycin alone) was “three weeks”. For the same compound, the “expression level of osteoblastic markers” value [3] was “increase in expression level”, the “expression level … compared to untreated control” value [3] was “increase in the expression level” and the “expression levels of osteoblast-specific genes” value ([3]; FIG. 6) was “increase the expression levels”. The “osteogenic induction activity among the three compounds” value ([3]; even at low doses, FIG. 6) was “most potent induction activity”, the “induction of embryoid bodies to differentiate into osteoblasts relative to LY294002 and AKT inhibitor” value ([3]; osteoblastic markers, FIG. 6) was “more effectively induce” and the “amounts of marker genes expressed relative to LY294002 or an AKT inhibitor” value [3, 8] was “as great as or greater than”. For the same compound, the “diversity of expressed marker genes (BMP2, osteocalcin, Cbfa-2, osterix, osteoprotegerin, GATA2, CMP)” value [3, 8] was “highest diversity” and the “expression of osterix and osteoprotegerin” value [3, 8] was “expressed at high levels”.
